The values below come from patent US20140051631A1, “PHARMACEUTICAL COMPOSITION COMPRISING TPO OR AN AGONIST OF THE TPO RECEPTOR” (priority 2012, published 2014).

Assay [1] deals with LSKs. Briefly: Competitive reconstitution with LSKs from irradiated donor mice. Type of assay: in vivo. The text has this: (§1) Mpl^−/− backcrossed on C57BL/6 (CD45.2) background (kindly provided by Dr F. de Sauvage) were described previously (Petit-Cocault et al., 2007). C57BL/6J (CD45.2 and CD45.1) and CB17-Prkdc-scid mice were purchased from Charles River and Harlan laboratories, respectively. Unless otherwise specified, mice of 8-10 weeks of age were used. Lin^− progenitors were isolated from BM and stained as described (Saulnier et al., 2012). LSK and LSK-CD34^− cells were sorted using ARIAS cell sorter (BD Franklin Lakes, N.J., USA) and cultured in StemSpan SFEM (StemCell Technologies) supplemented with recombinant Flt3-Ligand (100 ng/ml), interleukin-3 (IL-3, 10 ng/ml), interleukin-6 (IL-6, 10 ng/ml), Stem cell factor (SCF, 100 ng/ml), and with or without 50 ng/ml TPO (complete medium), all from Peprotech (Rocky Hill, N.J., USA). UT7-Mpl cells (Hamelin et al., 2006) were cultured in α-minimal essential medium (α-MEM) supplemented with 10% FCS and 2 U/ml erythropoietin (EPO, Boehringer Ingelheim). […] For competitive reconstitution experiments, 3000 LSKs sorted from C57BL/6 CD45.1 mice subjected or not to TBI (2 Gy) and TPO injection (8 μg/kg body weight), were injected in lethally irradiated (10 Gy) C57BL/6 CD45.2 congenic mice, together with 3×10^5 BM CD45.2 competitor cells and analyzed 4 months later.

In assay [2] the test system is LSK and LSK-CD34^− cells. Put plainly: Persistent DNA damage (γH2AX) in LSK and LSK-CD34− cells 3 months after TBI. The class given is in vivo, mice. The note with it: TPO prior to TBI, analyzed 3 months later.
Source text: as §1, with “USA).” for “USA). UT7-Mpl cells (Hamelin et al., 2006) were cultured in α-minimal essential medium (α-MEM) supplemented with 10% FCS and 2 U/ml erythropoietin (EPO, Boehringer Ingelheim).”
(§2) Immunofluorescence was performed as described (Pawlikowska et al., 2010) with cells cytospun on glass slides. […] Pictures were analyzed using ImageJ software.

In the next assay the test system is WT HSPCs. Put plainly: Chromosomal rearrangements in HSPCs irradiated in vitro. The note with it: WT HSPCs irradiated in vitro (2 Gy), cultured in the absence of TPO. Type of assay: cell-based, mice.
Source text: as §1, with “USA).” for “USA). UT7-Mpl cells (Hamelin et al., 2006) were cultured in α-minimal essential medium (α-MEM) supplemented with 10% FCS and 2 U/ml erythropoietin (EPO, Boehringer Ingelheim).”
Chromosomal aberration analysis in metaphase spreads were performed as described previously (Pawlikowska et al., 2010). […] Fluorescence was analyzed with a Zeiss Axioplan epifluorescent microscope and ISIS/M-FISH imaging system (MetaSystems).

The test system of assay [3] is LSK and LSK-CD34^− cells. Put plainly: LSK and LSK-CD34− proportions, cell cycle status and cell cycle regulators 5 h after TBI. The class given is in vivo, mice. The text has this: (§3) Mpl^−/− backcrossed on C57BL/6 (CD45.2) background (kindly provided by Dr F. de Sauvage) were described previously (Petit-Cocault et al., 2007). C57BL/6J (CD45.2 and CD45.1) and CB17-Prkdc-scid mice were purchased from Charles River and Harlan laboratories, respectively. Unless otherwise specified, mice of 8-10 weeks of age were used. Lin^− progenitors were isolated from BM and stained as described (Saulnier et al., 2012). LSK and LSK-CD34^− cells were sorted using ARIAS cell sorter (BD Franklin Lakes, N.J., USA) and cultured in StemSpan SFEM (StemCell Technologies) supplemented with recombinant Flt3-Ligand (100 ng/ml), interleukin-3 (IL-3, 10 ng/ml), interleukin-6 (IL-6, 10 ng/ml), Stem cell factor (SCF, 100 ng/ml), and with or without 50 ng/ml TPO (complete medium), all from Peprotech (Rocky Hill, N.J., USA). UT7-Mpl cells (Hamelin et al., 2006) were cultured in α-minimal essential medium (α-MEM) supplemented with 10% FCS and 2 U/ml erythropoietin (EPO, Boehringer Ingelheim). Cell IR in vitro were carried-out in a Biobeam 8000 irradiator (Gamma Service Medical GmbH, Leipzig, Germany). Mice TBI were performed in cesium irradiator IBL 637 (Curie Institute, Paris). Etoposide and doxorubicine were purchased from sigma (Saint-Louis, Mo., USA), drugs were injected intraperitoneally at the indicated doses. For competitive reconstitution experiments, 3000 LSKs sorted from C57BL/6 CD45.1 mice subjected or not to TBI (2 Gy) and TPO injection (8 μg/kg body weight), were injected in lethally irradiated (10 Gy) C57BL/6 CD45.2 congenic mice, together with 3×10^5 BM CD45.2 competitor cells and analyzed 4 months later.

The next assay relates to LSKs from SCID mice. Put plainly: γH2AX foci in LSKs from SCID mice after TBI. The conditions noted are these: SCID mice (DNA-PKcs mutation), TPO 8 μg/kg, TBI 2 Gy, 16 h. The class given is in vivo.
Source text: as §1, with “USA).” for “USA). UT7-Mpl cells (Hamelin et al., 2006) were cultured in α-minimal essential medium (α-MEM) supplemented with 10% FCS and 2 U/ml erythropoietin (EPO, Boehringer Ingelheim).”
as §2

For another assay, the system named is Rad51 foci. Briefly: Homologous recombination markers: Rad51 foci and repair of replicative-stress DSBs. The class given is cell-based.
Another assay relates to Lin^− progenitors. Put plainly: Chromosomal aberrations in metaphases from Lin− progenitors after TBI in vivo. Set-up: species or system mice. On the procedure:
Fluorescence was analyzed with a Zeiss Axioplan epifluorescent microscope and ISIS/M-FISH imaging system (MetaSystems).

Another assay deals with UT7-Mpl cells. Put plainly: DNA damage and p-DNA-PK foci in UT7-Mpl cells after IR. Type of assay: cell-based, human.
Source text: as §3
(§4) Immunofluorescence was performed as described (Pawlikowska et al., 2010) with cells cytospun on glass slides. Slides were visualized with Leica DMI 6000 (Wetzlar, Germany) microscope equipped with a 63×1.6 oil-immersion objective and a coupled device camera MicroMAX (Princeton Instruments Trenton, N.J., USA). Pictures were analyzed using ImageJ software.

Assay [4] deals with LSKs. Briefly: γH2AX foci in LSKs of mice after TBI or chemotherapeutic drug injection. The class given is in vivo. The note with it: WT mice, vs PBS.
Source text: as §3, §4

Assay [5] relates to LSKs. Put plainly: γH2AX foci / DNA break disappearance after IR in vitro in cytokine cultures. The note with it: removal of the cytokine from culture medium. The class given is cell-based, mice.
Source text: as §1, with “USA).” for “USA). UT7-Mpl cells (Hamelin et al., 2006) were cultured in α-minimal essential medium (α-MEM) supplemented with 10% FCS and 2 U/ml erythropoietin (EPO, Boehringer Ingelheim).”
as §2

The target in a further assay is T1, DNA-PK (Mus musculus, UniProt P97313).
T1 construct: LSK and LSK-CD34^− cells were sorted using ARIAS cell sorter; endogenous in cells; host or cells: primary mouse bone-marrow LSK-CD34- cells
Briefly: γH2AX foci resolution in LSK-CD34− cultures with DNA-PK inhibitor. The conditions noted are these: 10 μm NU7441 in TPO-containing cultures of LSK-CD34− cells, IR 2 Gy, 24 h. Type of assay: cell-based, mice.
Source text: as §1, with “USA).” for “USA). UT7-Mpl cells (Hamelin et al., 2006) were cultured in α-minimal essential medium (α-MEM) supplemented with 10% FCS and 2 U/ml erythropoietin (EPO, Boehringer Ingelheim).”
as §2

Setting [6] is: in the absence of TPO, compared to TPO-treated cells, IR 2 Gy.

Consider Thrombopoietin [TPO], for which the “increase in donor CD45.1 chimerism in the peripheral blood and in BM LSK cells” value with LSKs [1] (4 months after transplantation, TPO vs PBS before TBI) is 3- to 5 fold. In the assay with LSKs [1] (6 weeks posttransplantation), the “donor chimerism, difference between the TPO and PBS groups” value is recorded as “No difference”. Also, in the assay with LSK and LSK-CD34^− cells [2], the “number and cycle of HSCs and HSPCs” value is reported as “no effect”; the “persistent DNA damage (γH2AX foci) in HSCs and HSPCs” value is listed as “almost completely abolished”. The chromosomal rearrangements entry in the assay with WT HSPCs is given as “high numbers”. In the assay with LSK and LSK-CD34^− cells [3] (5 h after TBI, PBS vs TPO-treated mice), the “proportions of LSK and LSK-CD34− cells recovered from BM” value is “not significantly different”. In addition, in the assay on LSK and LSK-CD34^− cells [3] (TPO treatment pre-TBI, compared to PBS), the “cell cycle status of LSK or LSK-CD34− cells” value was “did not alter”. For the same molecule, the “expression of cell cycle regulators p57kip2 and p27Kip1” value with LSK and LSK-CD34^− cells [3] (after TPO injection and TBI) is recorded as “remained unchanged”. In the assay with LSKs from SCID mice, the “TBI-induced LSK γH2AX foci formation” value is reported as “did not decrease”. Besides, the “repair of DSBs induced by replicative stresses” value in the assay with Rad51 foci (camptotecin and hydroxyurea) is “could not improve”. For the same molecule, the “IR-induced Rad51 foci formation” value with Rad51 foci (functional marker of HR) was “did not increase”. In addition, in the assay on Lin^− progenitors (3 months from TBI, TPO-injected mice), the “chromosomal aberrations in metaphases from progenitor cells” value is “greatly reduced”. In addition, the “genomic instability (genomic rearrangements) transmitted to progenitor progeny of LSKs” value with Lin^− progenitors (4 months after reconstitution of lethally irradiated recipients, TPO injection before TBI) is “significantly reduced”. Also, in the assay with UT7-Mpl cells (UT7-Mpl grown with EPO or TPO), the “TPO action on IR-induced DNA damage in human cell line” value was “could also act”. In the assay on UT7-Mpl cells (setting [6]), the “number of UT7-Mpl cells showing IR-induced pSer2056- and pT2609-DNA-PK foci” value was “significantly decreased”; the “p-DNA-PK foci number in positively stained cells” value was “greatly reduced”. In addition, the “total DNA-PK signal” value in the assay on UT7-Mpl cells (upon IR or TPO treatment) is “did not change”. Also, the “number of LSKs displaying γH2AX foci” value in the assay with LSKs [4] (TPO 8 μg/kg injected just before 2 Gy TBI, at 5 h) is “reduced significantly”. The “number of LSKs displaying γH2AX foci” value in the assay on LSKs [4] (TPO injected just before doxorubicine (3 or 10 mg/kg), at 24 h) is on record as “reduced significantly”. The “number of LSKs displaying γH2AX foci” value in the assay with LSKs [4] (TPO injected just before etoposide (4 mg/kg), at 24 h) is recorded as “reduced significantly”.

For the molecule “Stem cell factor [SCF, reference compound]”, the “kinetics of IR-induced γH2AX foci or DNA break disappearance” value with LSKs [5] is on record as “did not impair”.

Turning to `O=c1cc(N2CCOCC2)oc2c(-c3cccc4c3sc3ccccc34)cccc12` [NU7441], on DNA-PK, the “TPO-improved γH2AX foci resolution” value is reported as “completely abolished”.

B1: Flt3-ligand: recombinant cytokine of the culture medium (100 ng/ml) (protein, UniProt P49771 27-235, looked up)
Fms-related tyrosine kinase 3 …: TQDCSFQHSPISSDFAVKIRELSDYLLQDYPVTVASNLQDEELCGGLWRLVLAQRWMERLKTVAGSKMQGLLERVNTEIHFVTKCAFQPPPSCLRFVQTNISRLLQETSEQLVALKPWITRQNFSRCLELQCQPDSSTLPPPWSPRPLEATAPTAPQPPLLLLLLLPVGLLLLAAAWCLHWQRTRRRTPRPGEQVPPVPSPQDLLLVEH
For B1, the “kinetics of IR-induced γH2AX foci or DNA break disappearance” value in the assay with LSKs [5] is reported as “did not impair”.
